One may read the IC50 as the point on the concentration scale where inhibition reaches its midpoint.

Results on 34 molecules are retold here after patent US10246469B2, “Biaryl kinase inhibitors” (BRISTOL-MYERS SQUIBB COMPANY, priority 2015, dated 2019).

The target in this experiment is T1, GST-Xa-hAAK1 (Homo sapiens, UniProt Q2M2I8).
T1 construct: GST (N); Factor Xa cleavage site (Xa) (internal); made in house
The experiment can be described thus: AAK1 Kinase Assay. It is filed as biochemical. The following applies: bacterially expressed GST-Xa-hAAK1 3.5 nM; ATP 22 μM; fluoresceinated peptide 1.5 μM; 3 hours at room temperature; Caliper LabChip 3000. The gist of the method: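 Bacterially expressed GST-Xa-hAAK1 (3.5 nM) phosphorylated 1.5 μM 5-FAM peptide with 22 μM ATP in Tris pH 7.4, MgCl2, DTT, 1.6% DMSO, 3 h at room temperature. EDTA-stopped; product separated electrophoretically on Caliper LabChip. IC50 from eleven concentrations by non-linear regression.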

T1 sequence (Q2M2I8 whole entry): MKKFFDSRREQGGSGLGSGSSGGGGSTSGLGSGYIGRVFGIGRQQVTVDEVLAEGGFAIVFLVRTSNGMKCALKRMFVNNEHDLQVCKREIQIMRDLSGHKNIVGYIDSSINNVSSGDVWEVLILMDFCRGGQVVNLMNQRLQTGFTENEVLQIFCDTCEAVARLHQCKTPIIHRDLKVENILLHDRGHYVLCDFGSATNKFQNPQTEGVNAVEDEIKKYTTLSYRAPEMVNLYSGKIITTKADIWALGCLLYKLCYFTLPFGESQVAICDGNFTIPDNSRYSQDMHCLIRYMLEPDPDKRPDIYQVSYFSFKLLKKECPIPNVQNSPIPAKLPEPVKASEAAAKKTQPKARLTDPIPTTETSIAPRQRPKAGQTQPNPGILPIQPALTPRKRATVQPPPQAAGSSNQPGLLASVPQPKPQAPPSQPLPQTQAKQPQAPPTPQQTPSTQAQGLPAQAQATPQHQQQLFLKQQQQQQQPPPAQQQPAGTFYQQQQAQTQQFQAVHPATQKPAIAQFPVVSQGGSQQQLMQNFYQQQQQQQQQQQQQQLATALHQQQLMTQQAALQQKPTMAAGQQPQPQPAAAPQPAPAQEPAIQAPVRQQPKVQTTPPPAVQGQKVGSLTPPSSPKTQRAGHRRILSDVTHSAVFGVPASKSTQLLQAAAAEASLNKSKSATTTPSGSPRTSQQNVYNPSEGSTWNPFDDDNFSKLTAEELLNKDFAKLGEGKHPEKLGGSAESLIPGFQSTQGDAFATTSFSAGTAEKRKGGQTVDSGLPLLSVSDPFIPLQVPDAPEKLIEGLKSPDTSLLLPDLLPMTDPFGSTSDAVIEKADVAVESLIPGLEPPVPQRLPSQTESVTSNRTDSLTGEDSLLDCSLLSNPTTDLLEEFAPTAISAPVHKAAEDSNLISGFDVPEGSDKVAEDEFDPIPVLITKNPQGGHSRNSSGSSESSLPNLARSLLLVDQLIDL

For the molecule `CC(C)C[C@](C)(N)COc1ccc(-c2ccnc(Nc3ccc4c(c3)OCO4)c2)cc1C(F)(F)F` [Example 412, (S)-4-(4-((2-amino-2,4-dimethylpentyl)oxy)-3-(trifluoromethyl)phenyl)-N-(benzo[d][1,3]dioxol-5-yl) pyridin-2-amine], the IC50 is 6.4 nM.
Take `CC(C)C[C@](C)(N)COc1ccc(-c2ccnc3c2C(=O)N(C)C3)cc1F` [Example 413, (S)-4-(4-((2-amino-2,4-dimethylpentyl)oxy)-3-fluorophenyl)-6-methyl-6,7-dihydro-5H-pyrrolo [3,4-b]pyridin-5-one]: the IC50 worked out at 765 nM.
Under `CC(C)C[C@](C)(N)COc1ccc(-c2ccnc3c2C(=O)N(C)C3)cc1C#N` [Example 414, (S)-2-((2-amino-2,4-dimethylpentyl)oxy)-5-(6-methyl-5-oxo-6,7-dihydro-5H-pyrrolo[3,4-b]pyridin-4-yl)benzonitrile] stands 47 nM; under `CC(C)C[C@](C)(N)COc1ccc(-c2ccnc3c2C(=O)NC3)cc1C#N` [Example 415, (S)-2-((2-amino-2,4-dimethylpentyl)oxy)-5-(5-oxo-6,7-dihydro-5H-pyrrolo[3,4-b]pyridin-4-yl)benzonitrile], 3.1 nM; under `CC(C)C[C@](C)(N)COc1ccc(-c2ccnc3c2C(=O)NC3)cc1F` [Example 416, (S)-4-(4-((2-amino-2,4-dimethylpentyl)oxy)-3-fluorophenyl)-6,7-dihydro-5H-pyrrolo[3,4-b]pyridin-5-one], 94 nM.
Consider `CC(C)C[C@](C)(N)COc1ccc(-c2ccnc3c2C(=O)NC3)cc1Cl` [Example 417, (S)-4-(4-((2-amino-2,4-dimethylpentyl)oxy)-3-chlorophenyl)-6,7-dihydro-5H-pyrrolo[3,4-b]pyridin-5-one], for which the IC50 was 3.6 nM.
Next, `CCN1Cc2nccc(-c3ccc(OC[C@@](C)(N)CC(C)C)c(C(F)(F)F)c3)c2C1=O` [Example 418, (S)-4-(4-((2-amino-2,4-dimethylpentyl)oxy)-3-(trifluoromethyl)phenyl)-6-ethyl-6,7-dihydro-5H-pyrrolo[3,4-b]pyridin-5-one]: 29 nM; `CCN1Cc2nccc(-c3ccc(OC[C@@](C)(N)CC(C)C)c(F)c3)c2C1=O` [Example 419, (S)-4-(4-((2-amino-2,4-dimethylpentyl)oxy)-3-fluorophenyl)-6-ethyl-6,7-dihydro-5H-pyrrolo [3,4-b]pyridin-5-one]: 1140 nM.
`CC(C)C[C@](C)(N)COc1ccc(-c2ccnc3cc[nH]c23)cc1F` [Example 420, (S)-1-(2-fluoro-4-(1H-pyrrolo[3,2-b]pyridin-7-yl)phenoxy)-2,4-dimethylpentan-2-amine]: the IC50 turned out to be 1.1 nM.
In the case of `CC(C)C[C@](C)(N)COc1ccc(-c2ccnc3cc[nH]c23)cc1C#N` [Example 421, (S)-2-((2-amino-2,4-dimethylpentyl)oxy)-5-(1H-pyrrolo[3,2-b]pyridin-7-yl)benzonitrile], the IC50 came to 0.5 nM.
As to `CC(C)C[C@](C)(N)COc1ccc(-c2ccnc3ccn(C)c23)cc1C#N` [Example 423, (S)-2-((2-amino-2,4-dimethylpentyl)oxy)-5-(1-methyl-1H-pyrrolo[3,2-b]pyridin-7-yl)benzonitrile], the IC50 came to 862 nM.
In the case of `CC(C)C[C@](C)(N)COc1ccc(-c2ccnc3cc[nH]c23)cc1C(F)(F)F` [Example 424, (S)-1-(4-(1H-pyrrolo[3,2-b]pyridin-7-yl)-2-(trifluoromethyl)phenoxy)-2,4-dimethylpentan-2-amine], the IC50 was 1.2 nM.
Take `CC(C)C[C@](C)(N)COc1ccc(-c2ccnc3c2C(=O)NC3)cc1C(F)(F)F` [Example 425, (S)-4-(4-((2-amino-2,4-dimethylpentyl)oxy)-3-(trifluoromethyl)phenyl)-6,7-dihydro-5H-pyrrolo [3,4-b]pyridin-5-one]: the IC50 was determined as 1.4 nM.
Next, `CC(C)C[C@](C)(N)COc1ccc(-c2ccnc3c2C(=O)N(C)C3)cc1C(F)(F)F` [Example 426, (S)-4-(4-((2-amino-2,4-dimethylpentyl)oxy)-3-(trifluoromethyl)phenyl)-6-methyl-6,7-dihydro-5H-pyrrolo [3,4-b]pyridin-5-one]: 7.2 nM; `Cc1cc(-c2ccnc3ccn(C)c23)ccc1OC[C@@](C)(N)CC(C)C` [Example 427, (S)-2,4-dimethyl-1-(2-methyl-4-(1-methyl-1H-pyrrolo[3,2-b]pyridin-7-yl)phenoxy)pentan-2-amine]: 1740 nM; `Cc1cc(-c2ccnc3c2C(=O)NC3)ccc1OC[C@@](C)(N)CC(C)C` [Example 428, (S)-4-(4-((2-amino-2,4-dimethylpentyl)oxy)-3-methylphenyl)-6,7-dihydro-5H-pyrrolo[3,4-b]pyridin-5-one]: 13 nM.
In the case of `CC(C)C[C@](C)(N)COc1ccc(-c2ccnc3c2C(=O)N(C)C3)cc1Cl` [Example 429, (S)-4-(4-((2-amino-2,4-dimethylpentyl)oxy)-3-chlorophenyl)-6-methyl-6,7-dihydro-5H-pyrrolo[3,4-b]pyridin-5-one], the IC50 is 36 nM.
With `Cc1cc(-c2ccnc3c2C(=O)N(C)C3)ccc1OC[C@@](C)(N)CC(C)C` [Example 430, (S)-4-(4-((2-amino-2,4-dimethylpentyl)oxy)-3-methylphenyl)-6-methyl-6,7-dihydro-5H-pyrrolo[3,4-b]pyridin-5-one], the IC50 came to 67 nM.
Regarding `CC(C)C[C@](C)(N)COc1ccc(-c2cc(NC3CCOC3)ncn2)cc1C(F)(F)F` (stereo partly drawn) [Example 448, 6-(4-(((S)-2-amino-2,4-dimethylpentyl)oxy)-3-(trifluoromethyl)phenyl)-N-(tetrahydrofuran-3-yl)pyrimidin-4-amine], the IC50 came to 399 nM.
Under `CC(C)C[C@](C)(N)COc1ncc(-c2cc(NC3CCOC3)ncn2)cc1Cl` (stereo partly drawn) [Example 449, 6-(6-(((S)-2-amino-2,4-dimethylpentyl)oxy)-5-chloropyridin-3-yl)-N-(tetrahydrofuran-3-yl)pyrimidin-4-amine] stands 352 nM; under `Cc1cn2nccc(-c3ccc(OC[C@@](C)(N)CC(C)C)c(C)n3)c2n1` [Example 452, (S)-2,4-dimethyl-1-((2-methyl-6-(2-methylimidazo[1,2-b]pyridazin-8-yl)pyridin-3-yl)oxy)pentan-2-amine], 11 nM; under `Cc1cn2nccc(-c3ccc(OC[C@@](C)(N)CC(C)C)c(C(F)F)n3)c2n1` [Example 453, (S)-1-((2-(difluoromethyl)-6-(2-methylimidazo[1,2-b]pyridazin-8-yl)pyridin-3-yl)oxy)-2,4-dimethylpentan-2-amine], 0.4 nM.
As to `CC(C)C[C@](C)(N)COc1ccc(-c2cc(N)nc3ccnn23)c(F)c1` [Example 455, (S)-7-(4-((2-amino-2,4-dimethylpentyl)oxy)-2-fluorophenyl)pyrazolo[1,5-a]pyrimidin-5-amine], the IC50 was 391 nM.
Next, `CC(C)C[C@](C)(N)COc1ccc(-c2ccnc3ccnn23)cc1Cl` [Example 456, (S)-1-(2-chloro-4-(pyrazolo [1,5-a]pyrimidin-7-yl)phenoxy)-2,4-dimethylpentan-2-amine]: 1 nM; `CC(C)C[C@](C)(N)COc1ccc(-c2cc(N)nc3ccnn23)cc1F` [Example 457, (S)-7-(4-((2-amino-2,4-dimethylpentyl)oxy)-3-fluorophenyl)pyrazolo[1,5-a]pyrimidin-5-amine]: 160 nM.
Under `Cc1cc(-c2ccc(OC[C@@](C)(N)CC(C)C)c(Cl)c2)n2nc(C)cc2n1` [Example 459, (S)-1-(2-chloro-4-(2,5-dimethylpyrazolo[1,5-a]pyrimidin-7-yl)phenoxy)-2,4-dimethylpentan-2-amine] stands 1270 nM.
Next, `CC(C)C[C@](C)(N)COc1ccc(-c2ccnc3ccnn23)cc1C#N` [Example 460, (S)-2-((2-amino-2,4-dimethylpentyl)oxy)-5-(pyrazolo[1,5-a]pyrimidin-7-yl)benzonitrile]: 0.6 nM.
`CC(C)C[C@](C)(N)COc1ccc(-c2ccnc3ccnn23)cc1F` [Example 461, (S)-1-(2-fluoro-4-(pyrazolo [1,5-a]pyrimidin-7-yl)phenoxy)-2,4-dimethylpentan-2-amine]: the IC50 is 2.9 nM.
Under `CC(=O)Nc1cc(-c2ccc(OC[C@@](C)(N)CC(C)C)c(F)c2)n2nccc2n1` [Example 463, (S)—N-(7-(4-((2-amino-2,4-dimethylpentyl)oxy)-3-fluorophenyl)pyrazolo [1,5-a]pyrimidin-5-yl) acetamide] stands 184 nM; under `Cc1cc(-c2ccc(OC[C@@](C)(N)CC(C)C)c(C#N)c2)n2nc(C)cc2n1` [Example 464, (S)-2-((2-amino-2,4-dimethylpentyl)oxy)-5-(2,5-dimethylpyrazolo[1,5-a]pyrimidin-7-yl)benzonitrile], 495 nM; under `CC(C)C[C@](C)(N)COc1ccc(-c2ccnc(NC3CCNCC3)c2)cc1C#N` [Example 466, (S)-2-(2-amino-2,4-dimethylpentyloxy)-5-(2-(piperidin-4-ylamino)pyridin-4-yl) benzonitrile], 64 nM.
Next, `CC(C)C[C@](C)(N)COc1ccc(-c2ccnc3ccnn23)cc1C(F)(F)F` [Example 467, (S)-2,4-dimethyl-1-(4-(pyrazolo[1,5-a]pyrimidin-7-yl)-2-(trifluoromethyl)phenoxy)pentan-2-amine]: 0.4 nM; `CC(C)C[C@](C)(N)COc1ccc(-c2ccnc(NC3CCOCC3)c2)cc1C#N` [Example 468, (S)-2-(2-amino-2,4-dimethylpentyloxy)-5-(2-(tetrahydro-2H-pyran-4-ylamino)pyridin-4yl)benzonitrile]: 54 nM; `CC(C)C[C@](C)(N)COc1ccc(-c2ccnc(NC3CCNCC3)c2)cc1C(F)(F)F` [Example 470, (S)-4-(4-(2-amino-2,4-dimethylpentyloxy)-3-(trifluoromethyl)phenyl)-N-(piperidin-4-yl)pyridin-2-amine]: 138 nM.
